Several values for one entry are separate records, joined by “and”; a condition that tells them apart may be missing. Equal entries are not always repeated. Toxic doses and inconclusive results are not listed.
Tested on: P388 leukemia ip, CD2F1 mice, survival T/C
Experiment: NCI In Vivo Anticancer Drug Screen. Data for tumor model P388 Leukemia (intraperitoneal) in CD2F1 (CDF1) mice
Settings: endpoint: median survival time, higher = longer survival
How it was run: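 Mice carrying the transplanted tumor received test compound or vehicle. Survival was recorded in each group, and the value is the treated-group measurement divided by that of the vehicle-treated control group.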

[1] = dose: 3.13 mg/kg/injection, schedule: Q01DX009 (ip), vehicle: saline
[2] = dose: 6.25 mg/kg/injection, schedule: Q01DX009 (ip), vehicle: saline
[3] = dose: 12.5 mg/kg/injection, schedule: Q01DX009 (ip), vehicle: saline
[4] = dose: 50.0 mg/kg/injection, schedule: Q01DX009 (ip), vehicle: saline
[5] = dose: 50.0 mg/kg/injection, schedule: Q01DX005 (ip), vehicle: saline with Tween-80
[6] = dose: 100.0 mg/kg/injection, schedule: Q01DX005 (ip), vehicle: saline with Tween-80
[7] = dose: 200.0 mg/kg/injection, schedule: Q01DX005 (ip), vehicle: saline with Tween-80
[8] = dose: 50.0 mg/kg/injection, schedule: Q01DX009 (ip), vehicle: suspension in saline
[9] = dose: 100.0 mg/kg/injection, schedule: Q04DX003 (ip), vehicle: saline with Tween-80
[10] = dose: 200.0 mg/kg/injection, schedule: Q04DX003 (ip), vehicle: saline with Tween-80
[11] = dose: 400.0 mg/kg/injection, schedule: Q04DX003 (ip), vehicle: saline with Tween-80
[12] = dose: 60.0 mg/kg/injection, schedule: Q01DX005 (ip), vehicle: saline
[13] = dose: 240.0 mg/kg/injection, schedule: Q01DX005 (ip), vehicle: saline
[14] = dose: 50.0 mg/kg/injection, schedule: Q01DX009 (ip), vehicle: saline with Tween-80
[15] = dose: 100.0 mg/kg/injection, schedule: Q01DX009 (ip), vehicle: saline with Tween-80
[16] = dose: 200.0 mg/kg/injection, schedule: Q01DX009 (ip), vehicle: saline with Tween-80
[17] = dose: 12.5 mg/kg/injection, schedule: Q04DX003 (ip), vehicle: water
[18] = dose: 25.0 mg/kg/injection, schedule: Q04DX003 (ip), vehicle: water
[19] = dose: 120.0 mg/kg/injection, schedule: Q01DX005 (ip), vehicle: saline
[20] = dose: 25.0 mg/kg/injection, schedule: Q01DX009 (ip), vehicle: saline with Tween-80

## CN(C)CC(CN1CCCC1)C(=O)c1ccccc1 (stereo unspecified)
dose: 3.12 mg/kg/injection, schedule: Q01DX009 (ip), vehicle: saline
  T/C: 96 % of control
[1]
  T/C: 96 % of control
[2]
  T/C: 99 % of control and 116 % of control (2×)
[3]
  T/C: 114 % of control
dose: 25.0 mg/kg/injection, schedule: Q01DX009 (ip), vehicle: saline
  T/C: 112 % of control and 121 % of control and 122 % of control
[4]
  T/C: 102 % of control

## O=c1nc(-c2ccccc2)cc(CCc2ccccc2)[nH]1
[5]
  T/C: 90 % of control
[6]
  T/C: 89 % of control
[7]
  T/C: 102 % of control

## N#CN=CN1CC2CCC(CC2)C1
[1]
  T/C: 98 % of control
[2]
  T/C: 102 % of control
[3]
  T/C: 92 % of control

## CN(C)c1ccc(N=C2C=CC(=O)C(Cl)=C2)cc1
dose: 25.0 mg/kg/injection, schedule: Q01DX009 (ip), vehicle: suspension in saline
  T/C: 106 % of control
[8]
  T/C: 115 % of control

## COc1cccc(C2=NC(=C3CCCCC3)C(=O)O2)c1
dose: 60.0 mg/kg/injection, schedule: Q01DX005 (ip), vehicle: saline with Tween-80
  T/C: 105 % of control
dose: 120.0 mg/kg/injection, schedule: Q01DX005 (ip), vehicle: saline with Tween-80
  T/C: 105 % of control
dose: 240.0 mg/kg/injection, schedule: Q01DX005 (ip), vehicle: saline with Tween-80
  T/C: 100 % of control

## CCCCn1c(=O)cc[nH]c1=O
[9]
  T/C: 100 % of control
[10]
  T/C: 100 % of control
[11]
  T/C: 99 % of control

## CC(O)C(O)C(O)C(O)C=O (stereo unspecified)
[12]
  T/C: 109 % of control
[13]
  T/C: 100 % of control

## COC(=O)C1C(OCc2ccccc2)C2CCC1(OC)C=C2C (stereo unspecified)
dose: 100.0 mg/kg/injection, schedule: Q04DX002 (ip), vehicle: saline with Tween-80
  T/C: 91 % of control
dose: 200.0 mg/kg/injection, schedule: Q04DX002 (ip), vehicle: saline with Tween-80
  T/C: 98 % of control
dose: 400.0 mg/kg/injection, schedule: Q04DX002 (ip), vehicle: saline with Tween-80
  T/C: 91 % of control

## O=C(Nc1cccc(Cl)c1)N1CC1
[14]
  T/C: 105 % of control
[15]
  T/C: 113 % of control

## CCOC(=O)c1cc([N+](=O)[O-])c(C)n1C
[14]
  T/C: 98 % of control
[15]
  T/C: 102 % of control
[16]
  T/C: 96 % of control

## CC1(C)CC(C)(OC(=O)c2ccccc2Cl)[N+]([O-])=N1 (stereo unspecified) (tested in a mixture with another compound)
dose: 12.5 mg/kg/injection, schedule: Q01DX009 (ip), vehicle: other
  T/C: 99 % of control
dose: 25.0 mg/kg/injection, schedule: Q01DX009 (ip), vehicle: other
  T/C: 98 % of control
dose: 50.0 mg/kg/injection, schedule: Q01DX009 (ip), vehicle: other
  T/C: 93 % of control
dose: 100.0 mg/kg/injection, schedule: Q01DX009 (ip), vehicle: other
  T/C: 94 % of control
dose: 200.0 mg/kg/injection, schedule: Q01DX009 (ip), vehicle: other
  T/C: 100 % of control

## S=C(Nc1ccc(Br)cc1)SCc1ccc(Cl)cc1
[8]
  T/C: 97 % of control
dose: 100.0 mg/kg/injection, schedule: Q01DX009 (ip), vehicle: suspension in saline
  T/C: 105 % of control
dose: 200.0 mg/kg/injection, schedule: Q01DX009 (ip), vehicle: suspension in saline
  T/C: 119 % of control

## C=CC1CC(NC(=O)OC)C(=O)O1 (stereo unspecified)
[5]
  T/C: 104 % of control
[6]
  T/C: 104 % of control
[7]
  T/C: 99 % of control

## [Cl][Ru][Cl].[NH-]CC[NH-].[NH-]CC[NH-]
[17]
  T/C: 111 % of control and 123 % of control and 124 % of control
[18]
  T/C: 107 % of control
dose: 50.0 mg/kg/injection, schedule: Q04DX003 (ip), vehicle: water
  T/C: 155 % of control

## COCCCCCC(=O)OC
[12]
  T/C: 101 % of control
[19]
  T/C: 100 % of control
[13]
  T/C: 104 % of control

## NC(=S)Nc1ccc(C(=O)O)cc1
[9]
  T/C: 100 % of control
[10]
  T/C: 95 % of control
[11]
  T/C: 109 % of control

## Cc1cc(C)nc(NS(=O)(=O)c2ccc(N=c3c4ccccc4n(C)c4ccccc34)cc2)n1
[5]
  T/C: 90 % of control
[6]
  T/C: 97 % of control
[7]
  T/C: 90 % of control

## COC(=O)C1CC2CCCCC2CC1OC(C)=O (stereo unspecified)
[20]
  T/C: 96 % of control
[14]
  T/C: 101 % of control and 111 % of control
[15]
  T/C: 106 % of control and 112 % of control and 121 % of control
[16]
  T/C: 99 % of control and 110 % of control and 121 % of control

## COCc1cccc2ccnc(C)c12
dose: 100.0 mg/kg/injection, schedule: Q01DX001 (ip), vehicle: saline with Tween-80
  T/C: 104 % of control
dose: 200.0 mg/kg/injection, schedule: Q01DX001 (ip), vehicle: saline with Tween-80
  T/C: 108 % of control
dose: 400.0 mg/kg/injection, schedule: Q01DX001 (ip), vehicle: saline with Tween-80
  T/C: 107 % of control

## CC1(Cl)C(=O)OC2CCC(O)C(O)C21 (stereo unspecified)
dose: 100.0 mg/kg/injection, schedule: Q04DX003 (ip), vehicle: Klucel (hydroxypropylcellulose) (HPC)
  T/C: 101 % of control
dose: 200.0 mg/kg/injection, schedule: Q04DX003 (ip), vehicle: Klucel (hydroxypropylcellulose) (HPC)
  T/C: 102 % of control
dose: 400.0 mg/kg/injection, schedule: Q04DX003 (ip), vehicle: Klucel (hydroxypropylcellulose) (HPC)
  T/C: 106 % of control

## O=C(O)COc1ccc(-c2ccc(Br)cc2)cc1
dose: 12.5 mg/kg/injection, schedule: Q01DX009 (ip), vehicle: saline with Tween-80
  T/C: 91 % of control
[20]
  T/C: 97 % of control
[14]
  T/C: 103 % of control

## COCC1(COC)CCN(C2CC(O[C@H]3C[C@](O)(C(C)=O)Cc4c(O)c5c(c(O)c43)C(=O)c3c(OC)cccc3C5=O)OC(C)C2O)CC1 (stereo partly specified)
dose: 1.56 mg/kg/injection, schedule: Q04DX003 (ip), vehicle: water
  T/C: 103 % of control
dose: 3.12 mg/kg/injection, schedule: Q04DX003 (ip), vehicle: water
  T/C: 110 % of control and 113 % of control
[17]
  T/C: 183 % of control and 212 % of control
[18]
  T/C: 152 % of control

## CN(C)CCCC#N
dose: 25.0 mg/kg/injection, schedule: Q04DX003 (ip), vehicle: saline
  T/C: 100 % of control
dose: 50.0 mg/kg/injection, schedule: Q04DX003 (ip), vehicle: saline
  T/C: 100 % of control
dose: 100.0 mg/kg/injection, schedule: Q04DX003 (ip), vehicle: saline
  T/C: 100 % of control

## O=C(O)c1c[nH]c2cc(OCc3ccc(Br)cc3)ccc2c1=O
[4]
  T/C: 96 % of control
dose: 100.0 mg/kg/injection, schedule: Q01DX009 (ip), vehicle: saline
  T/C: 89 % of control
dose: 200.0 mg/kg/injection, schedule: Q01DX009 (ip), vehicle: saline
  T/C: 86 % of control

## CC1=C(C)[CH2][Ge]([CH3])([CH3])[CH2]1
[12]
  T/C: 98 % of control
[19]
  T/C: 104 % of control
[13]
  T/C: 97 % of control

## C[N+](C)(C)c1ccc(Cc2ccc([N+](C)(C)C)cc2)cc1
dose: 6.3 micrograms/kg/injection, schedule: Q04DX002 (ip), vehicle: saline
  T/C: 107 % of control
dose: 12.5 micrograms/kg/injection, schedule: Q04DX002 (ip), vehicle: saline
  T/C: 111 % of control
dose: 25.0 micrograms/kg/injection, schedule: Q04DX002 (ip), vehicle: saline
  T/C: 103 % of control

## Clc1cnc(Oc2ccccc2)c2ccccc12
[5]
  T/C: 104 % of control
[6]
  T/C: 103 % of control
[7]
  T/C: 88 % of control

## CC(=O)N1C(=O)Cc2ccccc21
dose: 100.0 mg/kg/injection, schedule: Q01DX001 (ip), vehicle: Klucel (hydroxypropylcellulose) (HPC)
  T/C: 94 % of control
dose: 200.0 mg/kg/injection, schedule: Q01DX001 (ip), vehicle: Klucel (hydroxypropylcellulose) (HPC)
  T/C: 90 % of control
dose: 400.0 mg/kg/injection, schedule: Q01DX001 (ip), vehicle: Klucel (hydroxypropylcellulose) (HPC)
  T/C: 91 % of control

## CC1=NN(c2ccccc2)[As]2ON=C(c3ccc(Cl)cc3)C12 (stereo unspecified)
dose: 50.0 mg/kg/injection, schedule: Q01DX005 (ip), vehicle: Klucel (hydroxypropylcellulose) (HPC)
  T/C: 102 % of control
dose: 100.0 mg/kg/injection, schedule: Q01DX005 (ip), vehicle: Klucel (hydroxypropylcellulose) (HPC)
  T/C: 103 % of control
dose: 200.0 mg/kg/injection, schedule: Q01DX005 (ip), vehicle: Klucel (hydroxypropylcellulose) (HPC)
  T/C: 108 % of control

Reference: PubChem BioAssay AID330 (DTP/NCI, 2004)
